Measurements from ChEMBL document CHEMBL1143419, “Safety and pharmacokinetics of Bevirimat (PA-457), a novel inhibitor of human immunodeficiency virus maturation, in healthy volunteers” (Antimicrob Agents Chemother, 2007).

Columns and labels:
[1] = Apparent oral clearance in healthy human plasma at 25 mg, po administered as single dose; format: ADME, organism-based
[2] = Half life in healthy human plasma at 50 mg, po administered as single dose; format: ADME, organism-based
Homo sapiens [3] = assay: Toxicity in healthy human assessed as adverse event occurrence at 250 mg, po administered as single dose; format: organism-based; details: in vivo
[4] = Cmax in healthy human plasma at 25 mg, po administered as single dose; format: ADME, organism-based; design: dose 25 mg, route oral
[5] = Apparent oral clearance in healthy human plasma at 100 mg, po administered as single dose; format: ADME, organism-based
Homo sapiens [6] = assay: Cmax in healthy human plasma after 50 mg oral dose, normalised for 70 kg subject; format: ADME, organism-based; design: dose 50 mg, route oral; details: in vivo
[7] = Tmax in healthy human plasma at 250 mg, po administered as single dose; format: ADME, organism-based
Homo sapiens [8] = assay: Dose normalized AUC (0 to infinity) in healthy human plasma at 100 mg, po administered as single dose; format: ADME, organism-based; design: dose 100 mg, time infinity, route oral; details: in vivo
[9] = Apparent oral clearance in healthy human plasma at 250 mg, po administered as single dose; format: ADME, organism-based
[10] = Half life in healthy human plasma at 250 mg, po administered as single dose; format: ADME, organism-based
Homo sapiens [11] = assay: Dose normalized AUC (0 to infinity) in healthy human plasma at 25 mg, po administered as single dose; format: ADME, organism-based; design: dose 25 mg, time infinity, route oral; details: in vivo
[12] = Half life in healthy human plasma at 25 mg, po administered as single dose; format: ADME, organism-based
[13] = Drug concentration in healthy human urine assessed as conjugated drug level at 250 mg, po administered as single dose after 48 hrs; format: ADME, organism-based; details: in vivo
[14] = Cmax in healthy human plasma at 50 mg, po administered as single dose; format: ADME, organism-based; design: dose 50 mg, route oral
[15] = Tmax in healthy human plasma at 25 mg, po administered as single dose; format: ADME, organism-based
[16] = AUC (0 to infinity) in healthy human plasma at 50 mg, po administered as single dose; format: ADME, organism-based; design: dose 50 mg, route oral, time infinity
[17] = Apparent oral clearance in healthy human plasma at 50 mg, po administered as single dose; format: ADME, organism-based
[18] = AUC (0 to infinity) in healthy human plasma at 25 mg, po administered as single dose; format: ADME, organism-based; design: dose 25 mg, time infinity, route oral
Homo sapiens [19] = assay: Dose normalized AUC (0 to infinity) in healthy human plasma at 250 mg, po administered as single dose; format: ADME, organism-based; design: dose 250 mg, route oral, time infinity; details: in vivo
[20] = Tmax in healthy human plasma at 50 mg, po administered as single dose; format: ADME, organism-based
Homo sapiens [21] = assay: Toxicity in healthy human assessed as adverse event occurrence at 25 mg, po administered as single dose; format: organism-based; details: in vivo
[22] = AUC (0 to infinity) in healthy human plasma at 250 mg, po administered as single dose; format: ADME, organism-based; design: dose 250 mg, time infinity, route oral
Homo sapiens [23] = assay: Toxicity in healthy human assessed as adverse event occurrence at 100 mg, po administered as single dose; format: organism-based; details: in vivo
Homo sapiens [24] = assay: Cmax in healthy human plasma after 25 mg oral dose, normalised for 70 kg subject; format: ADME, organism-based; design: dose 25 mg, route oral; details: in vivo
[25] = Tmax in healthy human plasma at 100 mg, po administered as single dose; format: ADME, organism-based
[26] = Cmax in healthy human plasma at 250 mg, po administered as single dose; format: ADME, organism-based; design: dose 250 mg, route oral
Homo sapiens [27] = assay: Cmax in healthy human plasma after 250 mg oral dose, normalised for 70 kg subject; format: ADME, organism-based; design: dose 250 mg, route oral; details: in vivo
[28] = Half life in healthy human plasma at 100 mg, po administered as single dose; format: ADME, organism-based
[29] = AUC (0 to infinity) in healthy human plasma at 100 mg, po administered as single dose; format: ADME, organism-based; design: dose 100 mg, route oral, time infinity
[30] = Drug concentration in healthy human urine assessed as unconjugated drug level at 250 mg, po administered as single dose after 48 hrs; format: ADME, organism-based; details: read-out: Drug uptake
Homo sapiens [31] = assay: Cmax in heathy human plasma after 100 mg oral dose, normalised for 70 kg subject; format: ADME, organism-based; design: dose 100 mg, route oral; details: in vivo
Homo sapiens [32] = assay: Dose normalized AUC (0 to infinity) in healthy human plasma at 50 mg, po administered as single dose; format: ADME, organism-based; design: dose 50 mg, time infinity, route oral; details: in vivo
Homo sapiens [33] = assay: Toxicity in healthy human assessed as adverse event occurrence at 50 mg, po administered as single dose; format: organism-based; details: in vivo

CL/F [1]: 2.89 mL/h/kg | half-life [2]: 56.7 h | Cmax [4]: 2240 ng/mL | CL/F [5]: 1.75 mL/h/kg | Cmax (Homo sapiens [6]): 7300 ng/mL | Tmax [7]: 2.5 h | AUC (Homo sapiens [8]): 1014 µg·h/mL | CL/F [9]: 2.43 mL/h/kg | half-life [10]: 69 h | AUC (Homo sapiens [11]): 170.2 µg·h/mL | half-life [12]: 55.8 h | Drug uptake [13]: 0.82 %ID | Cmax [14]: 6060 ng/mL | Tmax [15]: 1.75 h | AUC(0-inf) [16]: 312 µg·h/mL | CL/F [17]: 2.76 mL/h/kg | AUC(0-inf) [18]: 151 µg·h/mL | AUC (Homo sapiens [19]): 2221.8 µg·h/mL | Tmax [20]: 1 h | AUC(0-inf) [22]: 1800 µg·h/mL | Cmax (Homo sapiens [24]): 2800 ng/mL | Tmax [25]: 2 h | Cmax [26]: 30000 ng/mL | Cmax (Homo sapiens [27]): 31100 ng/mL | half-life [28]: 75.4 h | AUC(0-inf) [29]: 983 µg·h/mL | dose excreted at 48 h [30]: 0.82% | Cmax (Homo sapiens [31]): 14900 ng/mL | AUC (Homo sapiens [32]): 362.1 µg·h/mL
Structure (SMILES): C=C(C)[C@@H]1CC[C@]2(C(=O)O)CC[C@]3(C)[C@H](CC[C@@H]4[C@@]5(C)CC[C@H](OC(=O)CC(C)(C)C(=O)O)C(C)(C)[C@@H]5CC[C@]43C)[C@@H]12 [BEVIRIMAT]
Activity (Homo sapiens [3]): 33.3% | Activity (Homo sapiens [21]): 16.7% | Activity (Homo sapiens [23]): 50% | Activity (Homo sapiens [33]): 16.7%
